What was measured:
control strain MG1655 = assay: C. elegans infection system: control strain bacteria recovered from the nematode gut after treatment; format: in vivo, E. coli; conditions: MG1655-fed C. elegans; 100 μg/mL gentamicin, 50 μg/mL kanamycin, 7 μg/mL heparin or 0.01% mannose in M9 buffer, 24 hours at 26° C.; P<0.001 for all compounds tested; FIG. 4
Experimental: (§1) Nematodes were infected with prototypical ETEC H10407 or control MG1655 strains on NGM agar. After 24 hours of infection, 30 nematodes were harvested and placed in 1 mL M9 buffer (black bars), or M9 buffer supplemented with 100 μg/mL gentamicin (white bars), 50 μg/mL kanamycin (cross-hatched bars), 7 μg/mL heparin (checkered bars), or 0.01% mannose (speckled bars), and incubated at 26° C. for 24 hours. Values represent the means of three replicate assays, and error bars indicate 1 SD.
In one embodiment, a C. elegans/ETEC infection system can be used to screen for chemotherapeutic agents able to disrupt colonization of the nematode gut. In another embodiment, a C. elegans/ETEC infection system may be used to test a range of compounds including, for purposes of example only, the bacteriocidal antibiotic gentamicin, bacteriostatic antibiotic kanamycin, heparin, which may disrupt bacterial adherence, and mannose, which inhibits type I fimbria-mediated adherence to host cells. Age-synchronized L4 nematodes were placed on NGM agar inoculated with either strain H10407 or the control MG1655. Twenty-four hours post-infection, 30 nematodes fed each strain were placed in M9 buffer or M9 buffer supplemented with the desired compounds. After an additional 24 hours of incubation at 26° C., nematodes were harvested, washed to remove exterior bacteria, pulverized and plated on selective LB agar. […]

[1] = system: enteropathogenic E. coli (EPEC) strain E2348/69; assay: C. elegans infection system: EPEC bacteria recoverable from the nematode gut after treatment; format: in vivo; conditions: EPEC E2348/69-infected C. elegans; gentamicin; data not shown
Source text: With continued reference to FIG. 4, there was no significant difference in the number of recoverable ETEC bacteria after treatment with any of the other compounds tested. […] The present invention therefore also includes a C. elegans small animal infection model for studying EPEC. Accordingly, a C. elegans infection system could be used to screen for potentially therapeutic chemical agents against multiple E. coli pathotypes.

ETEC strain H10407 = assay: C. elegans/ETEC infection system: screen of chemotherapeutic agents against colonization of the nematode gut; format: in vivo, E. coli; conditions: ETEC H10407-infected C. elegans, 24 hours at 26° C.
Experimental: as §1
In one embodiment, a C. elegans/ETEC infection system can be used to screen for chemotherapeutic agents able to disrupt colonization of the nematode gut. In another embodiment, a C. elegans/ETEC infection system may be used to test a range of compounds including, for purposes of example only, the bacteriocidal antibiotic gentamicin, bacteriostatic antibiotic kanamycin, heparin, which may disrupt bacterial adherence, and mannose, which inhibits type I fimbria-mediated adherence to host cells. Age-synchronized L4 nematodes were placed on NGM agar inoculated with either strain H10407 or the control MG1655. Twenty-four hours post-infection, 30 nematodes fed each strain were placed in M9 buffer or M9 buffer supplemented with the desired compounds. After an additional 24 hours of incubation at 26° C., nematodes were harvested, washed to remove exterior bacteria, pulverized and plated on selective LB agar.
After 3 days at 26° C., L4 nematodes were removed from feeding using a platinum wire and placed on rifampin-containing NGM agar plates with pre-grown ETEC and control strains that were incubated at 37° C. overnight. Prior to seeding of C. elegans, NGM and CFA agar plates were shifted to 26° C., the temperature where they remained for the duration of the assay. For the standard plate count assay, nematodes were fed on ETEC and control strains for 24 hours. […]

gentamicin
reduction in the number of bacteria recovered from the nematode gut, significance (control strain MG1655): significant reduction | reduction in the number of EPEC bacteria recoverable from the nematode gut compared to untreated EPEC-infected nematodes [1]: approximately one order of magnitude | reduction in the number of ETEC bacteria recoverable from the nematode gut (vs M9 buffer), significance (ETEC strain H10407; 100 μg/mL gentamicin, 50 μg/mL kanamycin, 7 μg/mL heparin or 0.01% mannose in M9 buffer, FIG. 4): significant (P=0.004) reduction | size of the reduction in recoverable ETEC bacteria, M9 buffer versus M9 buffer supplemented with gentamicin (ETEC strain H10407; 100 μg/mL gentamicin): approximately one order of magnitude | mean number of bacteria recoverable from the nematode gut after incubation (ETEC strain H10407; M9 buffer supplemented with 100 μg/mL gentamicin, FIG. 4): 1×10^4 CFU per nematode

heparin
reduction in the number of bacteria recovered from the nematode gut, significance (control strain MG1655): significant reduction

Source: patent US8216592B2, “Infection model for developing chemotherapeutic agents” (priority 2007, dated 2012)
